≈ marks a conversion by molar mass, not a printed value. Where two headings read alike, the source gives them in different places.
Columns and labels:
[1] = Kinetic solubility (method of Hoelke et al.); format: physicochemical
Source text: Park et al. have shown that the degree of saturation of fatty acids exerts a profound impact on permeability of fatty acylated peptides—a higher degree of unsaturation results in higher permeability.[43] PUFA can also induce significant biophysical perturbations upon incorporation into membrane phospholipids.[67],[68] […] Given that the hydrophobicity of fatty acyl residues in general reduces as the number of unsaturated sites increases,[69],[70] we decided to ascertain how such structural modifications translate to the kinetic solubility of the molecule as a whole. […] The acylation with PUFA thus provides an elegant, albeit counterintuitive, approach, by which permeability of the molecule as a whole as well as its capacity for liposomal encapsulation can be enhanced without completely abolishing its aqueous solubility.

hNOD2 = biological target: T1, hNOD2 (Homo sapiens, UniProt Q9HC29); assay: HEK-Blue NOD2 cell line reporter assay (NF-κB-inducible SEAP); format: cell-based
T1 construct: host or cells: HEK-Blue NOD2 cells (HEK293)
T1 sequence (Q9HC29 whole entry): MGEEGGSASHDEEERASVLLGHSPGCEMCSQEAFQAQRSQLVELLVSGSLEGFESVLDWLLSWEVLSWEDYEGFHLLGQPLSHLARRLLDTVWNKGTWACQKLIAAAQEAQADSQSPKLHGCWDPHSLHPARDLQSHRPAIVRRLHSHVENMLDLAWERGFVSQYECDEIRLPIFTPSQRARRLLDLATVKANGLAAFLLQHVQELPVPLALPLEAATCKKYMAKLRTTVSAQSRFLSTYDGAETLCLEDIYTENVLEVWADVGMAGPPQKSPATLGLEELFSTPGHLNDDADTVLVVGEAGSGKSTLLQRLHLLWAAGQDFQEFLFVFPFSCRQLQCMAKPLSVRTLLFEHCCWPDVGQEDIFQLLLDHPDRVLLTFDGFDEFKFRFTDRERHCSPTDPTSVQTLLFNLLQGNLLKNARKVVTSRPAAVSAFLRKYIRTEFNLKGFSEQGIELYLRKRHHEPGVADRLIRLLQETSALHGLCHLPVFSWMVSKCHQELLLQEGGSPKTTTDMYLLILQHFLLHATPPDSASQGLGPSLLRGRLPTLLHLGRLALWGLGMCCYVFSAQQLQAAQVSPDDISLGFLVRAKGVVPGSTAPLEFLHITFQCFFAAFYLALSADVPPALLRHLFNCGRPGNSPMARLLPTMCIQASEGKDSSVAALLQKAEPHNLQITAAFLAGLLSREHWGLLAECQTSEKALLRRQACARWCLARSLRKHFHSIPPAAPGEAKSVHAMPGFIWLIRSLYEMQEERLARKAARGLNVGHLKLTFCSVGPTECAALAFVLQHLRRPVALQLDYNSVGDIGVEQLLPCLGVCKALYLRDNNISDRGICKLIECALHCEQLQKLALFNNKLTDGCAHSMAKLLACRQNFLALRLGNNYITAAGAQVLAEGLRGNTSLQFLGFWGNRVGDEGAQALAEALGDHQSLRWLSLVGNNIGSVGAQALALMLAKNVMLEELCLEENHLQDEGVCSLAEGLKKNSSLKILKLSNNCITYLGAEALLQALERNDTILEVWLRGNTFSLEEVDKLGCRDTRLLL
Procedure: To assess the NOD2 agonistic potential of the synthesized desmuramylpeptides at a cellular level, we employed the HEK-Blue NOD2 cell line reporter assay, a validated and commercially available method. All synthesized compounds were evaluated for their dose-dependent activities to establish their EC50 values.
The HEK-Blue NOD1 and NOD2 cell line reporter assay was generated from HEK293 cells through cotransfection of the hNOD1 or hNOD2 gene, respectively, along with an NF-κB-inducible secreted embryonic alkaline phosphatase (SEAP) reporter gene. Upon activation of NOD1 or NOD2, NF-κB triggers the production of SEAP, which can be quantitatively measured colorimetrically. […] After 18 h of incubation at 37 °C with 5% CO2, SEAP activity was measured spectrophotometrically by absorbance at 630 nm (BioTek Synergy microplate reader; Winooski, VT, USA). EC50 values were determined using Prism software (version 9; GraphPad Software, CA, USA). Each experiment was conducted in duplicate and repeated in at least two independent biological replicates.

human PBMCs = assay: Cytokine release from peripheral blood mononuclear cells (LEGENDplex panel); format: cell-based; details: 18 h
Source text: The immunomodulatory effects of the selected desmuramylpeptides were examined in human primary peripheral blood mononuclear cells (PBMCs). This diverse mixture of immune cells provided a platform to investigate the effects of these NOD2 agonists within a physiologically relevant environment, encompassing other NOD2-interacting and downstream signaling proteins. […] Given that NOD2 activation often modulates the Toll-like receptor (TLR)-induced cytokine responses, we investigated the impact of combining desmuramylpeptides with lipopolysaccharide (LPS), a well-known TLR4 agonist, on cytokine secretion.[76]−[78]
The elicited cytokine profiles thus broadly reflect the structure–activity relationships obtained in the reporter gene assays.
Peripheral blood mononuclear cells were plated at a density of 1 × 10^6 cells/mL in 48-well plates containing 500 μL of growth medium. Cells were then treated with the compounds (2 μM) or the corresponding vehicle (0.1% DMSO), both in the absence and presence of LPS (10 ng/mL). Following an 18 h incubation period at 37 °C with 5% CO2, cell-free supernatants were collected and stored at −80 °C until analysis. […] Standard curves were constructed using recombinant cytokines provided in the kit. Data analysis was performed using Biolegend software Qognit and Prism (GraphPad, San Diego, CA, USA) software. The experiments were independently replicated four times. Statistical significance was determined using two-way analysis of variance (ANOVA) followed by Tukey’s multiple comparisons test.

K562 cancer cells = assay: PBMC cytotoxicity against K562 cancer cells (flow cytometry); format: cell-based; details: for cytotoxicity of PBMCs against K562 cells, cotreatment with LPS (relative to negative control) / Cytotoxicity (ratio to control), + LPS: 10 μM + LPS 1 μg/mL; for cytotoxicity of PBMCs against K562 cells, cotreatment with LPS (relative to negative control) / enhancement of cytotoxicity of PBMCs against K562 cells (relative to negative control): 18 h, then 4 h coincubation; for cytotoxicity of PBMCs against K562 cells, cotreatment with LPS (relative to negative control): 40:1; for Cytotoxicity (ratio to control), + LPS / Cytotoxicity (ratio to control): Table S2; for Cytotoxicity (ratio to control) / enhancement of cytotoxicity of PBMCs against K562 cells (relative to negative control): alone: compounds 10 μM, LPS 1 μg/mL, IL-2 200 U/mL; for enhancement of cytotoxicity of PBMCs against K562 cells (relative to negative control): effector:target 40:1
Procedure: In this study, we investigated the potential of desmuramylpeptides, both alone and in combination with LPS, to enhance the cytotoxic activity of PBMCs against cancer cells employing a flow-cytometry-based cytotoxicity assay based on coincubation of preactivated PBMCs with fluorescently labeled K562 cancer cells.[82] Among the diverse subpopulations within PBMCs, natural killer (NK) cells play a pivotal role in detecting and eliminating cancer cells. NOD2-mediated NK cell activity against cancer cells arises from both direct NOD2 agonist elicited cytolytic activity of NK cells[83] and indirect activation through cytokine release by other NOD2-responsive cells, such as monocytes, which comprise approximately 10% of PBMCs; such interactions potentially reinforce the immune response.[84] […] To that end, we utilized the entire PBMC population as effector cells rather than isolated NK cells, to mimic conditions more closely resembling the in vivo environment while K562 chronic myelogenous leukemia cells were used as the target cells in a 40:1 effector to target cell ratio.[87]
(§1) The PBMC cytotoxicity assays utilizing K562 cells were conducted following previously established methods, with some adjustments.[82] […] Meanwhile, K562 cells were stained with CFSE (Invitrogen, Carlsbad, CA, USA), washed twice with complete medium, and then added (1 × 10^4 cells per well) to the pretreated PBMCs to achieve a final effector cell to target tumor cell ratio of 40:1. Following a 4-h coincubation period at 37 °C with 5% CO2, cells were stained with Sytox blue dead cell stain (Invitrogen) and analyzed using an Attune NxT flow cytometer (Thermo Fisher Scientific, Waltham, MA, USA) along with FlowJo software (Tree Star, Inc., Ashland, OR, USA). Cells positive for both CFSE and Sytox blue were designated as dead K562 cells. PBMCs alone and CFSE-labeled cancer cells alone were also exposed to the compounds at equivalent concentrations and stained with Sytox blue to assess any direct cytotoxic effects of the compounds on PBMCs and cancer cells separately. Each experiment was conducted in duplicate and repeated in three independent biological replicates. Statistical analysis was performed using one-way ANOVA followed by Dunnett’s multiple comparisons test.

PBMCs = assay: Direct cytotoxic effect of compounds on PBMCs (Sytox blue); format: cell-based; details: Table S2; for Percent of dead PBMCs, + LPS: 10 μM + LPS 1 μg/mL; for Percent of dead PBMCs: alone: compounds 10 μM, LPS 1 μg/mL, IL-2 200 U/mL
Procedure: Additionally, PBMCs and cancer cells alone were treated with desmuramylpeptides to assess any direct cytotoxic effects on these cells.
as §1

[2] = HEK-Blue NOD2 cells, 18 h, NF-κB transcriptional activity (SEAP), read-out: EC50 (nM), NOD2 agonistic activity

solubility kinetic [1] [µM] | EC50 (hNOD2; [2]) [nM] | Kinetic solubility [1] | SMILES | levels of LPS-induced IL-10 (human PBMCs; 2 μM + LPS 10 ng/mL) | cytotoxicity of PBMCs against K562 cells, cotreatment with LPS (relative to negative control) (K562 cancer cells) [fold] | Cytotoxicity (ratio to control), + LPS (K562 cancer cells) | Cytotoxicity (ratio to control) (K562 cancer cells) | enhancement of cytotoxicity of PBMCs against K562 cells (relative to negative control) (K562 cancer cells) | Percent of dead PBMCs, + LPS (PBMCs) | Percent of dead PBMCs (PBMCs) | further results
417 (≈ 223 µg/mL) | – | – | CCOC(=O)CC[C@@H](NC(=O)[C@@H](NC(=O)CNC(=O)/C=C/c1ccc(O)c(OC)c1)C(C)C)C(=O)OCC [Compound 1] | – | – | – | – | – | – | – | –
– | 9.9 ± 0.69 | insoluble | CCCCCCCCCCCC(=O)Oc1ccc(/C=C/C(=O)NCC(=O)N[C@H](C(=O)N[C@H](CCC(=O)OCC)C(=O)OCC)C(C)C)cc1OC [Compound 2] | amplified | 1.54 | 1.54 ± 0.08 | 1.00 ± 0.05 | no activity | 8.07% ± 0.47% | 0.96% ± 0.14% | boost of NOD2 agonist activity on incorporation into SLN/NLC (hNOD2; 2-loaded SLNs and NLCs versus free 2): 5 factor; EC50 (hNOD2; HEK-Blue NOD2 cell line, SLN and NLC formulations by melt-emulsification): 10.5 nM; production of MCP-1 and IFN-γ compared to the MDP/LPS combination (human PBMCs; 2 μM + LPS 10 ng/mL): significantly diminished production; secretion of IL-1β, IL-10 and TGFβ compared to the MDP/LPS combination (human PBMCs; 2 μM + LPS 10 ng/mL): increased secretion
– | 382 ± 121 | insoluble | CCCCCCCCCCCCCCCC(=O)Oc1ccc(/C=C/C(=O)NCC(=O)N[C@H](C(=O)N[C@H](CCC(=O)OCC)C(=O)OCC)C(C)C)cc1OC [Compound 9, Diethyl ((E)-3-(3-Methoxy-4-(palmitoyloxy)phenyl)acryloyl)glycyl-L-valyl-D-glutamate] | – | – | – | – | – | – | – | –
– | 8640 ± 1920 | – | CCOC(=O)[C@@H](CCC(=O)NCCCNCCCCNCCCN)NC(=O)[C@@H](NC(=O)CNC(=O)/C=C/c1ccc(O)c(OC)c1)C(C)C [Compound 32, N^5-(3-((4-((3-Aminopropyl)amino)butyl)amino)propyl)-N^2-((E)-3-(4-hydroxy-3-methoxyphenyl)acryloyl)glycyl-L-valyl-D-glutaminate] | opposite | 2.95 | 2.95 ± 0.41 | 1.10 ± 0.06 | devoid of the capacity to induce cytotoxicity | 7.20% ± 0.36% | 1.01% ± 0.22% | EC50 (hNOD2; HEK-Blue NOD2 cells, 18 h, read-out: EC50, NOD2 agonistic activity (text)): 8600 nM; amounts of IL-1β, IL-6, IL-10, TNF-α and IFN-γ compared to the MDP/LPS combination (human PBMCs; 2 μM + LPS 10 ng/mL): lesser amounts; levels of secreted MCP-1 compared to the MDP/LPS combination (human PBMCs; 2 μM + LPS 10 ng/mL): on par; production of proinflammatory cytokines and chemokines including IL-6, IL-8 and MCP-1 (human PBMCs; 2 μM alone (no LPS)): smaller increases
209 (≈ 130 µg/mL) | 356 ± 24 | – | CCOC(=O)[C@@H](CCC(=O)OCCN1CCOCC1)NC(=O)[C@@H](NC(=O)CNC(=O)/C=C/c1ccc(O)c(OC)c1)C(C)C [Compound 35, 1-Ethyl 5-(2-Morpholinoethyl) ((E)-3-(4-hydroxy-3-methoxyphenyl)acryloyl)glycyl-L-valyl-D-glutamate] | – | – | – | – | – | – | – | drop in activity compared to 1 (hNOD2; ethyl ester replaced with morpholinoethyl): 4 factor
321 (≈ 182 µg/mL) | 96.1 ± 51.5 | – | CCOC(=O)CC[C@@H](NC(=O)[C@@H](NC(=O)CNC(=O)/C=C/c1cc(OC)c(O)c(OC)c1)C(C)C)C(=O)OCC [Compound 37, Diethyl ((E)-3-(4-Hydroxy-3,5-dimethoxyphenyl)acryloyl)glycyl-L-valyl-D-glutamate] | – | – | – | – | – | – | – | –

Reference: paper PMC11472310, “Distinctive Immune Signatures Driven by Structural Alterations in Desmuramylpeptide NOD2 Agonists” (Journal of Medicinal Chemistry, 2024)
